According to patent US20150105252A1, “SUBSTITUTED PYRAZOLES AS HERBICIDES” (E I DU PONT DE NEMOURS AND COMPANY, priority 2013, published 2015):

How the values were obtained:
barnyardgrass [1] = assay: Test A preemergence; format: in vivo, Echinochloa crus-galli; details: preemergence; for Barnyardgrass plant response rating (0 to 100 scale, 0 is no effect, 100 is complete control): 125 g ai/ha, visual injury approx. 10 days after treatment; for Barnyardgrass plant response rating: 500 g ai/ha, visual injury after approx. 10 days, 0 to 100 scale (0 no effect, 100 complete control)
Outline: (§1)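 Both timings tested concurrently in loam/sand soil: preemergence by directed soil spray, postemergence on plants of 2–10 cm at the one- to two-leaf stage. Greenhouse holding period was approximately 10 days before visual injury assessment (0–100, 0 = no effect).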

kochia [2] = assay: Test A preemergence; format: in vivo, Kochia scoparia; details: 125 g ai/ha, visual injury approx. 10 days after treatment
Excerpt: (§2) Seeds of plant species selected from barnyardgrass (Echinochloa crus-galli), kochia (Kochia scoparia), common ragweed (Ambrosia elation), Italian ryegrass (Lolium multiflorum), crabgrass, large (large crabgrass, Digitaria sanguinalis), foxtail, giant (giant foxtail, Setaria faberii), morningglory (Ipomoea spp.), pigweed (redroot pigweed, Amaranthus retroflexus), velvetleaf (Abutilon theophrasti), wheat (Triticum aestivum), and corn (Zea mays) were planted into a blend of loam soil and sand and treated preemergence with a directed soil spray using test chemicals formulated in a non-phytotoxic solvent mixture which included a surfactant.
(§3) At the same time, plants selected from these crop and weed species and also blackgrass (Alopecurus myosuroides), and galium (catchweed bedstraw, Galium aparine) were planted in pots containing the same blend of loam soil and sand and treated with postemergence applications of test chemicals formulated in the same manner. Plants ranged in height from 2 to 10 cm and were in the one- to two-leaf stage for the postemergence treatment. Treated plants and untreated controls were maintained in a greenhouse for approximately 10 days, after which time all treated plants were compared to untreated controls and visually evaluated for injury. Plant response ratings, summarized in Table A, are based on a 0 to 100 scale where 0 is no effect and 100 is complete control. A dash (-) response means no test result.

common ragweed [3] = assay: Test A preemergence; format: in vivo, Ambrosia elation; details: for Common Ragweed plant response rating (0 to 100 scale): 125 g ai/ha, visual injury approx. 10 days after treatment; for Common Ragweed plant response rating: 500 g ai/ha, visual injury after approx. 10 days, 0 to 100 scale (0 no effect, 100 complete control)
Excerpt: as §2, §3

Italian ryegrass [4] = assay: Test A preemergence; format: in vivo, Lolium multiflorum; details: for Italian Ryegrass plant response rating (0 to 100 scale): 125 g ai/ha, visual injury approx. 10 days after treatment; for Italian Ryegrass plant response rating: 500 g ai/ha, visual injury after approx. 10 days, 0 to 100 scale (0 no effect, 100 complete control)
Outline: as §1

foxtail, giant [5] = assay: Test A preemergence; format: in vivo, Setaria faberii; details: preemergence; for Foxtail, Giant plant response rating (0 to 100 scale): 125 g ai/ha, visual injury approx. 10 days after treatment; for Foxtail, Giant plant response rating: 500 g ai/ha, visual injury after approx. 10 days, 0 to 100 scale (0 no effect, 100 complete control)
Outline: as §1

pigweed [6] = assay: Test A preemergence; format: in vivo, Amaranthus retroflexus; details: preemergence, 125 g ai/ha, visual injury approx. 10 days after treatment
Outline: as §1

barnyardgrass [7] = assay: Test A postemergence; format: in vivo, Echinochloa crus-galli
Outline: as §1

kochia [8] = assay: Test A postemergence; format: in vivo, Kochia scoparia; details: Postemergence
Excerpt: as §2, §3

common ragweed [9] = assay: Test A postemergence; format: in vivo, Ambrosia elation
Excerpt: as §2, §3

Italian ryegrass [10] = assay: Test A postemergence; format: in vivo, Lolium multiflorum; details: Postemergence
Excerpt: as §2, §3

foxtail, giant [11] = assay: Test A postemergence; format: in vivo, Setaria faberii
Outline: as §1

pigweed [12] = assay: Test A postemergence; format: in vivo, Amaranthus retroflexus; details: Postemergence
Outline: as §1

wheat = assay: Test A postemergence; format: in vivo, Triticum aestivum; details: Postemergence
Outline: as §1

corn = assay: Test A postemergence; format: in vivo, Zea mays
Outline: as §1

blackgrass = assay: Test A postemergence; format: in vivo, Alopecurus myosuroides
Outline: as §1

galium = assay: Test A postemergence; format: in vivo, Galium aparine; details: Postemergence
Excerpt: as §2, §3

rice = assay: Test B flood; format: in vivo, Oryza sativa; details: 250 g ai/ha, visual rating on 0 to 100 scale (0 no effect, 100 complete control), 13 to 15 days
Outline: (§4)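 Plants were grown to the 2-leaf stage and pots flooded to 3 cm above soil. Compounds were applied directly into the paddy water, with depth kept for the test. After 13–15 days in greenhouse, response was rated visually against controls on a 0 (no effect) to 100 (complete control) scale.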

sedge, umbrella = assay: Test B flood; format: in vivo, Cyperus difformis; details: 250 g ai/ha, visual rating on 0 to 100 scale (0 no effect, 100 complete control), 13 to 15 days
Outline: as §4

ducksalad = assay: Test B flood; format: in vivo, Heteranthera limosa; details: 250 g ai/ha, visual rating on 0 to 100 scale (0 no effect, 100 complete control), 13 to 15 days
Outline: as §4

barnyardgrass [13] = assay: Test B flood; format: in vivo, Echinochloa crus-galli; details: 250 g ai/ha, visual rating on 0 to 100 scale (0 no effect, 100 complete control), 13 to 15 days
Outline: as §4

[14] = Postemergence, 500 g ai/ha, 0 to 100 scale (0 no effect, 100 complete control)
[15] = postemergence, 125 g ai/ha, about 10 days, visual rating on 0 to 100 scale (0 no effect, 100 complete control)
[16] = 125 g ai/ha, 0 to 100 scale, 0 no effect, 100 complete control
[17] = 500 g ai/ha, 0 to 100 scale (0 no effect, 100 complete control)
[18] = Postemergence, 125 g ai/ha, 0 to 100 scale, 0 no effect, 100 complete control

Row | SMILES | Barnyardgrass plant response rating (0 to 100 scale, 0 is no effect, 100 is complete control) (barnyardgrass [1]) | Barnyardgrass plant response rating (barnyardgrass [1]) | Kochia plant response rating (0 to 100 scale) (kochia [2]) | Common Ragweed plant response rating (0 to 100 scale) (common ragweed [3]) | Common Ragweed plant response rating (common ragweed [3]) | Italian Ryegrass plant response rating (0 to 100 scale) (Italian ryegrass [4]) | Italian Ryegrass plant response rating (Italian ryegrass [4]) | Foxtail, Giant plant response rating (0 to 100 scale) (foxtail, giant [5]) | Foxtail, Giant plant response rating (foxtail, giant [5]) | Pigweed plant response rating (0 to 100 scale) (pigweed [6]) | Barnyardgrass plant response rating (barnyardgrass [7]; [14]) | Kochia plant response rating (kochia [8]; [16]) | Kochia plant response rating (kochia [8]; [17]) | Common Ragweed plant response rating (common ragweed [9]; [14]) | Italian Ryegrass plant response rating (Italian ryegrass [10]; [16]) | Italian Ryegrass plant response rating (Italian ryegrass [10]; [17]) | Foxtail, Giant plant response rating (foxtail, giant [11]; [14]) | Pigweed plant response rating (pigweed [12]; [16]) | Pigweed plant response rating (pigweed [12]; [17]) | Wheat plant response rating (wheat; [16]) | further results
1 | CCONC(=O)c1cc(CC)n(Cc2cc(OC(F)F)nn2C)n1 [Compound 207] | 0 | 90 | 30 | 0 | 40 | 0 | 20 | 0 | 20 | 50 | 80 | 30 | 60 | 30 | 0 | 50 | 60 | 60 | 100 | 10 | Barnyardgrass plant response rating (barnyardgrass [7]; [15]): 0; Common Ragweed plant response rating (common ragweed [9]; [15]): 0; Foxtail, Giant plant response rating (foxtail, giant [11]; [15]): 0; Wheat plant response rating (wheat; [17]): 20; Corn plant response rating (corn; [14]): 60; Corn plant response rating (corn; [15]): 30; Blackgrass plant response rating (blackgrass; [14]): 60; Blackgrass plant response rating (blackgrass; [15]): 0; Galium plant response rating (galium; [16]): 40; Galium plant response rating (galium; [17]): 80; Plant response rating, Rice (rice): 0; Plant response rating, Sedge, Umbrella (sedge, umbrella): 0; Plant response rating, Ducksalad (ducksalad): 0; Plant response rating, Barnyardgrass (barnyardgrass [13]): 0
2 | CCONC(=O)c1cc(CC)n(Cc2cc(C(F)(F)F)nn2C(C)C)n1 [Compound 208] | 0 | 10 | 10 | 0 | 10 | 0 | 10 | 0 | 30 | 20 | 10 | 20 | 50 | 20 | 0 | 0 | 10 | 40 | 80 | 0 | Barnyardgrass plant response rating (barnyardgrass [7]; [15]): 0; Common Ragweed plant response rating (common ragweed [9]; [15]): 0; Foxtail, Giant plant response rating (foxtail, giant [11]; [15]): 0; Wheat plant response rating (wheat; [17]): 0; Corn plant response rating (corn; [14]): 10; Corn plant response rating (corn; [15]): 0; Blackgrass plant response rating (blackgrass; [14]): 10; Blackgrass plant response rating (blackgrass; [15]): 0; Galium plant response rating (galium; [16]): 20; Galium plant response rating (galium; [17]): 50; Plant response rating, Rice (rice): 0; Plant response rating, Sedge, Umbrella (sedge, umbrella): 0; Plant response rating, Ducksalad (ducksalad): 0; Plant response rating, Barnyardgrass (barnyardgrass [13]): 0
3 | CCc1cc(C(=O)NC2CC2)nn1Cc1cc(OC(F)F)nn1C [Compound 211] | 0 | 70 | 50 | 0 | 40 | 0 | 20 | 0 | 80 | 50 | 50 | 80 | 90 | 20 | 0 | 30 | 60 | 70 | 100 | 0 | Barnyardgrass plant response rating (barnyardgrass [7]; [18]): 0; Common Ragweed plant response rating (common ragweed [9]; [18]): 0; Foxtail, Giant plant response rating (foxtail, giant [11]; [18]): 0; Wheat plant response rating (wheat; [17]): 20; Corn plant response rating (corn; [18]): 30; Corn plant response rating (corn; [14]): 40; Blackgrass plant response rating (blackgrass; [18]): 0; Blackgrass plant response rating (blackgrass; [14]): 50; Galium plant response rating (galium; [16]): 20; Galium plant response rating (galium; [17]): 70; Plant response rating, Rice (rice): 0; Plant response rating, Sedge, Umbrella (sedge, umbrella): 0; Plant response rating, Ducksalad (ducksalad): 0; Plant response rating, Barnyardgrass (barnyardgrass [13]): 0
4 | CCc1cc(C(=O)NC2CC2)nn1Cc1cc(C(F)(F)F)nn1C(C)C [Compound 212] | 0 | 0 | 0 | 0 | 0 | 0 | 0 | 0 | 0 | 20 | 10 | 10 | 70 | 10 | 0 | 10 | 10 | 40 | 80 | 0 | Barnyardgrass plant response rating (barnyardgrass [7]; [18]): 0; Common Ragweed plant response rating (common ragweed [9]; [18]): 0; Foxtail, Giant plant response rating (foxtail, giant [11]; [18]): 0; Wheat plant response rating (wheat; [17]): 10; Corn plant response rating (corn; [18]): 0; Corn plant response rating (corn; [14]): 10; Blackgrass plant response rating (blackgrass; [18]): 0; Blackgrass plant response rating (blackgrass; [14]): 10; Galium plant response rating (galium; [16]): 20; Galium plant response rating (galium; [17]): 40; Plant response rating, Rice (rice): 0; Plant response rating, Sedge, Umbrella (sedge, umbrella): 0; Plant response rating, Ducksalad (ducksalad): 0; Plant response rating, Barnyardgrass (barnyardgrass [13]): 0
5 | CCc1cc(C(=O)NCC(F)(F)F)nn1Cc1cc(C(F)(F)F)nn1C(C)C [Compound 213] | 0 | 0 | 0 | 0 | 0 | 0 | 0 | 0 | 0 | 0 | 0 | 0 | 0 | 0 | 0 | 0 | 0 | 0 | 0 | 0 | Barnyardgrass plant response rating (barnyardgrass [7]; [18]): 0; Common Ragweed plant response rating (common ragweed [9]; [18]): 0; Foxtail, Giant plant response rating (foxtail, giant [11]; [18]): 0; Wheat plant response rating (wheat; [17]): 0; Corn plant response rating (corn; [18]): 0; Corn plant response rating (corn; [14]): 0; Blackgrass plant response rating (blackgrass; [18]): 0; Blackgrass plant response rating (blackgrass; [14]): 0; Galium plant response rating (galium; [16]): 0; Galium plant response rating (galium; [17]): 0; Plant response rating, Rice (rice): 0; Plant response rating, Sedge, Umbrella (sedge, umbrella): 0; Plant response rating, Ducksalad (ducksalad): 0; Plant response rating, Barnyardgrass (barnyardgrass [13]): 0
